# According to patent publication US11987588B2, “Modulators of the beta-3 adrenergic receptor useful for the treatment or prevention of heart failure and disorders related thereto” (Arena Pharmaceuticals, Inc., priority 2017, dated 2024):
# Biological target: Beta-3 Adrenergic Receptor (Homo sapiens (Human), UniProt P13945)
# Test: Homogeneous Time-Resolved Fluorescence (HTRF) cAMP antagonist assay, IC50 determination
# Assay type: cell-based
# Conditions: CHO-K1 cells stably expressing recombinant receptor, isoproterenol at EC90
# Method in brief: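 CHO-K1 cells stably expressing receptor, 1500 cells/well, preincubated briefly with 10-point 5-fold compound series (top final typically 10 or 100 μM) in PBS with 1 mM IBMX, then challenged with isoproterenol at EC90 for 1 h at room temperature. cAMP read by HTRF against on-plate standard curve; IC50 from dose-response.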
# Sequence of Beta-3 Adrenergic Receptor (P13945 whole entry, species assumed): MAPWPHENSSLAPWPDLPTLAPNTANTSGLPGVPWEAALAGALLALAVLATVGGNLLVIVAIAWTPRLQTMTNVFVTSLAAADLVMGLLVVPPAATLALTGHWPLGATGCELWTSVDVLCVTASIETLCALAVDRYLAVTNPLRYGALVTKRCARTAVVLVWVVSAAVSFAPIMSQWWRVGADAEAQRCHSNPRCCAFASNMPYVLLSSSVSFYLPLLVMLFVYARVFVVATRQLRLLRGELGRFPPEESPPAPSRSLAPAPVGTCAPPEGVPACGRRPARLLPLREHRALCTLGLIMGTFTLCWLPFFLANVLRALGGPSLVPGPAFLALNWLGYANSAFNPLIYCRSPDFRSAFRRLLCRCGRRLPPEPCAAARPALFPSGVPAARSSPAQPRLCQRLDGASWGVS
row,IC50,Structure (SMILES)
1,609 nM,"CNS(=O)(=O)c1cccc(OC[C@@H](O)CN[C@H]2COC3(CCN(c4nccc(C(F)(F)F)n4)CC3)C2)c1 [Compound 574, 3-((S)-2-hydroxy-3-((R)-8-(4-(trifluoromethyl)pyrimidin-2-yl)-1-oxa-8-azaspiro[4.5]decan-3-ylamino)propoxy)-N-methylbenzenesulfonamide]"
2,7.41 nM,"CNS(=O)(=O)c1cccc(OC[C@@H](O)CN[C@H]2COC3(CCN(S(=O)(=O)c4cccc(-c5cnn(C)c5)c4)CC3)C2)c1 [Compound 215, 3-((S)-2-hydroxy-3-((R)-8-(3-(1-methyl-1H-pyrazol-4-yl)phenylsulfonyl)-1-oxa-8-azaspiro[4.5]decan-3-ylamino)propoxy)-N-methylbenzenesulfonamide]"
3,33.1 nM,"CNS(=O)(=O)c1cccc(OC[C@@H](O)CNC2COC3(CCN(S(=O)(=O)c4cc5c(nc4Cl)OCCN5C)CC3)C2)c1 (stereo partly drawn) [Compound 400, 3-((2S)-3-(8-(6-chloro-1-methyl-2,3-dihydro-1H-pyrido[2,3-b][1,4]oxazin-7-ylsulfonyl)-1-oxa-8-azaspiro[4.5]decan-3-ylamino)-2-hydroxypropoxy)-N-methylbenzenesulfonamide]"
4,220 nM,"O=S(=O)(NCC(F)(F)F)c1cccc(OC[C@@H](O)CNC2COC3(CCN(S(=O)(=O)c4ccc5ccccc5c4)CC3)C2)c1 (stereo partly drawn) [Compound 5, 3-((2S)-2-hydroxy-3-(8-(naphthalen-2-ylsulfonyl)-1-oxa-8-azaspiro[4.5]decan-3-ylamino)propoxy)-N-(2,2,2-trifluoroethyl)benzenesulfonamide]"
5,87.2 nM,"O=S(=O)(NC1CCOCC1)c1cccc(OC[C@@H](O)CNC2COC3(CCN(S(=O)(=O)c4ccc5ccccc5c4)CC3)C2)c1 (stereo partly drawn) [Compound 50, 3-((2S)-2-hydroxy-3-(8-(naphthalen-2-ylsulfonyl)-1-oxa-8-azaspiro[4.5]decan-3-ylamino)propoxy)-N-(tetrahydro-2H-pyran-4-yl)benzenesulfonamide]"
6,20.8 nM,"CNS(=O)(=O)c1cccc(OC[C@@H](O)CNC2COC3(CCN(S(=O)(=O)c4cc(Cl)c(Cl)s4)CC3)C2)c1 (stereo partly drawn) [Compound 178, 3-((2S)-3-(8-(4,5-dichlorothiophen-2-ylsulfonyl)-1-oxa-8-azaspiro[4.5]decan-3-ylamino)-2-hydroxypropoxy)-N-methylbenzenesulfonamide]"
7,12.8 nM,"CNS(=O)(=O)c1cccc(OC[C@@H](O)CN[C@@H]2COC3(CCN(S(=O)(=O)c4ccc5c(c4)NC(=O)CO5)CC3)C2)c1 [Compound 278, 3-((S)-2-hydroxy-3-((S)-8-(3-oxo-3,4-dihydro-2H-benzo[b][1,4]oxazin-6-ylsulfonyl)-1-oxa-8-azaspiro[4.5]decan-3-ylamino)propoxy)-N-methylbenzenesulfonamide]"
8,74 nM,"CNS(=O)(=O)c1cccc(OC[C@@H](O)CNC2COC3(CCN(S(=O)(=O)c4ccccc4S(C)(=O)=O)CC3)C2)c1 (stereo partly drawn) [Compound 43, 3-((2S)-2-hydroxy-3-(8-(2-(methylsulfonyl)phenylsulfonyl)-1-oxa-8-azaspiro[4.5]decan-3-ylamino)propoxy)-N-methylbenzenesulfonamide]"
9,191 nM,"CN1CCOc2ncc(S(=O)(=O)N3CCC4(CC3)C[C@@H](NC[C@H](O)COc3cccc(S(=O)(=O)N[C@@H]5CCCC[C@@H]5O)c3)CO4)cc21 [Compound 435, 3-((S)-2-hydroxy-3-((R)-8-(1-methyl-2,3-dihydro-1H-pyrido[2,3-b][1,4]oxazin-7-ylsulfonyl)-1-oxa-8-azaspiro[4.5]decan-3-ylamino)propoxy)-N-((1R,2S)-2-hydroxycyclohexyl)benzenesulfonamide]"
10,23 nM,"CNS(=O)(=O)c1cccc(OC[C@@H](O)CNC2COC3(CCN(S(=O)(=O)c4ccc(-c5cccnc5)cc4)CC3)C2)c1 (stereo partly drawn) [Compound 407, 3-((2S)-2-hydroxy-3-(8-(4-(pyridin-3-yl)phenylsulfonyl)-1-oxa-8-azaspiro[4.5]decan-3-ylamino)propoxy)-N-methylbenzenesulfonamide]"
11,36.4 nM,"CCC(C)(C)c1ccc(S(=O)(=O)N2CCC3(CC2)CC(NC[C@H](O)COc2cccc(S(=O)(=O)NC)c2)CO3)cc1 (stereo partly drawn) [Compound 120, 3-((2S)-2-hydroxy-3-(8-(4-tert-pentylphenylsulfonyl)-1-oxa-8-azaspiro[4.5]decan-3-ylamino)propoxy)-N-methylbenzenesulfonamide]"
12,24.9 nM,"CNS(=O)(=O)c1cccc(OC[C@@H](O)CNC2COC3(CCN(S(=O)(=O)c4c(Cl)nc5sccn45)CC3)C2)c1 (stereo partly drawn) [Compound 129, 3-((2S)-3-(8-(6-chloroimidazo[2,1-b]thiazol-5-ylsulfonyl)-1-oxa-8-azaspiro[4.5]decan-3-ylamino)-2-hydroxypropoxy)-N-methylbenzenesulfonamide]"
13,112 nM,"C[C@@H](NS(=O)(=O)c1cccc(OC[C@@H](O)CNC2COC3(CCN(S(=O)(=O)c4ccc5ccccc5c4)CC3)C2)c1)C1CC1 (stereo partly drawn) [Compound 93, N—((R)-1-cyclopropylethyl)-3-((2S)-2-hydroxy-3-(8-(naphthalen-2-ylsulfonyl)-1-oxa-8-azaspiro[4.5]decan-3-ylamino)propoxy)benzenesulfonamide]"
14,28.9 nM,"CNS(=O)(=O)c1cccc(OC[C@@H](O)CN[C@H]2COC3(CCN(S(=O)(=O)c4ccc5[nH]cnc5c4)CC3)C2)c1 [Compound 503, 3-((S)-3-((R)-8-(1H-benzo[d]imidazol-5-ylsulfonyl)-1-oxa-8-azaspiro[4.5]decan-3-ylamino)-2-hydroxypropoxy)-N-methylbenzenesulfonamide]"
15,67.9 nM,"CNS(=O)(=O)c1cccc(OC[C@@H](O)CNC2COC3(CCN(S(=O)(=O)c4ccc(OC)c5ccccc45)CC3)C2)c1 (stereo partly drawn) [Compound 258, 3-((2S)-2-hydroxy-3-(8-(4-methoxynaphthalen-1-ylsulfonyl)-1-oxa-8-azaspiro[4.5]decan-3-ylamino)propoxy)-N-methylbenzenesulfonamide]"
16,28.5 nM,"CNS(=O)(=O)c1cccc(OC[C@@H](O)CNC2COC3(CCN(S(=O)(=O)c4cncc(-c5ccc(CN)cc5)c4)CC3)C2)c1 (stereo partly drawn) [Compound 341, 3-((2S)-3-(8-(5-(4-(aminomethyl)phenyl)pyridin-3-ylsulfonyl)-1-oxa-8-azaspiro[4.5]decan-3-ylamino)-2-hydroxypropoxy)-N-methylbenzenesulfonamide]"
17,14.6 nM,"CNS(=O)(=O)c1cccc(OC[C@@H](O)CNC2COC3(CCN(S(=O)(=O)c4cccc(-c5ccc(CN)s5)c4)CC3)C2)c1 (stereo partly drawn) [Compound 369, 3-((2S)-3-(8-(3-(5-(aminomethyl)thiophen-2-yl)phenylsulfonyl)-1-oxa-8-azaspiro[4.5]decan-3-ylamino)-2-hydroxypropoxy)-N-methylbenzenesulfonamide]"
18,85.6 nM,"CNS(=O)(=O)c1cccc(OC[C@@H](O)CNC2COC3(CCN(S(=O)(=O)c4cccc(-c5cccc(COC)c5)c4)CC3)C2)c1 (stereo partly drawn) [Compound 65, 3-((2S)-2-hydroxy-3-(8-(3′-(methoxymethyl)biphenyl-3-ylsulfonyl)-1-oxa-8-azaspiro[4.5]decan-3-ylamino)propoxy)-N-methylbenzenesulfonamide]"
19,17.1 nM,"CNS(=O)(=O)c1cccc(OC[C@@H](O)CNC2COC3(CCN(S(=O)(=O)c4cccc(F)c4F)CC3)C2)c1 (stereo partly drawn) [Compound 201, 3-((2S)-3-(8-(2,3-difluorophenylsulfonyl)-1-oxa-8-azaspiro[4.5]decan-3-ylamino)-2-hydroxypropoxy)-N-methylbenzenesulfonamide]"
20,58.8 nM,"CNS(=O)(=O)c1cccc(OC[C@@H](O)CN[C@H]2COC3(CCN(S(=O)(=O)c4c[nH]c5ncccc45)CC3)C2)c1 [Compound 507, 3-((S)-3-((R)-8-(1H-pyrrolo[2,3-b]pyridin-3-ylsulfonyl)-1-oxa-8-azaspiro[4.5]decan-3-ylamino)-2-hydroxypropoxy)-N-methylbenzenesulfonamide]"
21,31.3 nM,"CCNS(=O)(=O)c1cccc(OC[C@@H](O)CNC2COC3(CCN(S(=O)(=O)c4ccc(Br)c(C)c4)CC3)C2)c1 (stereo partly drawn) [Compound 227, 3-((2S)-3-(8-(4-bromo-3-methylphenylsulfonyl)-1-oxa-8-azaspiro[4.5]decan-3-ylamino)-2-hydroxypropoxy)-N-ethylbenzenesulfonamide]"
22,25.7 nM,"CNc1nc2c(cc1S(=O)(=O)N1CCC3(CC1)C[C@@H](NC[C@H](O)COc1cccc(S(=O)(=O)NC)c1)CO3)N(C)CCO2 [Compound 452, 3-((S)-2-hydroxy-3-((R)-8-(1-methyl-6-(methylamino)-2,3-dihydro-1H-pyrido[2,3-b][1,4]oxazin-7-ylsulfonyl)-1-oxa-8-azaspiro[4.5]decan-3-ylamino)propoxy)-N-methylbenzenesulfonamide]"
23,4010 nM,"Cc1c(S(=O)(=O)N2CCC3(CC2)CC(NC[C@H](O)COc2cccc(S(=O)(=O)NCCCN(C)C)c2)CO3)cnn1-c1ccccc1 (stereo partly drawn) [Compound 313, N-(3-(dimethylamino)propyl)-3-((2S)-2-hydroxy-3-(8-(5-methyl-1-phenyl-1H-pyrazol-4-ylsulfonyl)-1-oxa-8-azaspiro[4.5]decan-3-ylamino)propoxy)benzenesulfonamide]"
24,10.8 nM,"CNS(=O)(=O)c1cccc(OC[C@@H](O)CNC2COC3(CCN(S(=O)(=O)c4cnn(-c5ccccc5)c4C)CC3)C2)c1 (stereo partly drawn) [Compound 132, 3-((2S)-2-hydroxy-3-(8-(5-methyl-1-phenyl-1H-pyrazol-4-ylsulfonyl)-1-oxa-8-azaspiro[4.5]decan-3-ylamino)propoxy)-N-methylbenzenesulfonamide]"
25,30.8 nM,"CNS(=O)(=O)c1cccc(OC[C@@H](O)CNC2COC3(CCN(S(=O)(=O)c4cc(OC)ccc4C#N)CC3)C2)c1 (stereo partly drawn) [Compound 263, 3-((2S)-3-(8-(2-cyano-5-methoxyphenylsulfonyl)-1-oxa-8-azaspiro[4.5]decan-3-ylamino)-2-hydroxypropoxy)-N-methylbenzenesulfonamide]"
26,40.5 nM,"CNS(=O)(=O)c1cccc(OC[C@@H](O)CNC2COC3(CCN(S(=O)(=O)c4ccc(-c5ccccc5)cc4)CC3)C2)c1 (stereo partly drawn) [Compound 123, 3-((2S)-3-(8-(biphenyl-4-ylsulfonyl)-1-oxa-8-azaspiro[4.5]decan-3-ylamino)-2-hydroxypropoxy)-N-methylbenzenesulfonamide]"
